In patent US7001600B1, “Identification of TRP-2 as a human tumor antigen recognized by cytotoxic T lymphocytes” (The United States of America as represented by the …, priority 1996, dated 2006):
Entries after “also recorded” stand apart in the source; their conditions may differ.

Tested on: CTL clone 1 (TRP-1)
Assay: GM-CSF secretion assay: CTL clone 1 (TIL586-C1) co-incubated with peptide-pulsed target cells
Format: cell-based, human
Details: 1510EBV (HLA-A31+) cells pulsed with peptide at 1-g/ml for 90 min

Sequence	GSM-CSF release CTL clone 1 (TRP-1)
LLGPGRPYR [TRP197–205, 9mer antigenic peptide of TRP-2, amino acids 197–205]	< 50 pg/mL
MSLQRQFLR [ORF3P, control peptide derived from the alternative open reading frame of the TRP-1 gene, reference compound]	> 6000 pg/mL

Tested on: CTL clone 4
Assay: Cytotoxicity assay (Calcein AM): lysis of peptide-pulsed target cells by CTL clone 4
Format: cell-based, human
Details: 586EBV B cells pulsed with peptide, E:T ratio 40:1, 4 h
Procedure: Cytolysis was determined by use of Calcein AM (Molecular Probes, Eugene, Oreg.). Briefly, T2 or 586EBV B cells were pulsed with peptides in RPMI1640/5% FCS for 90 min. Tumor cells and the peptide pulsed EBV B cells were labelled with Calcein AM (15 μl of 1 mg/ml Calcein AM for every 1×10^6 cells) for 30 min at 37. C. Following incubation, cells were washed three times with AIM V/120 IU IL-2. 1×10^3 target cells were mixed with T cells at various E:T ratio. After 4 h incubation at 37° C., 5 μl of bovine hemoglobin quench solution containing ethidium bromide was added. The plate was read by Lambda scan. The percentage of lysis was calculated from the following equation: [1−(A−B)/(C−B)]×100 where A is the reading of non-lysed cells in the presence of T cells, B is background signal value and C is the maximum signal value from target cells.

Sequence	peptide concentration at which lysis of target cells by CTL clone 4 was detected	peptide concentration of maximum lysis
LLGPGRPYR [TRP197–205, 9mer antigenic peptide of TRP-2, amino acids 197–205]	1 nM	100 nM

Same assay, conditions: different E:T ratios, peptide pulsed 90 min

Sequence	lysis of peptide-pulsed 586EBV B cells by CTL clone 4 (in words)
LLGPGRPYR [TRP197–205, 9mer antigenic peptide of TRP-2, amino acids 197–205]	capable of lysing
MSLQRQFLR [ORF3P, control peptide derived from the alternative open reading frame of the TRP-1 gene, reference compound]	failed to lyse

Tested on: CTL clone 4 (TRP-2)
Assay: GM-CSF secretion assay: CTL clone 4 co-incubated with peptide-pulsed target cells
Format: cell-based, human
Details: 1510EBV (HLA-A31+) cells pulsed with peptide at 1-g/ml for 90 min

Sequence	GSM-CSF release CTL clone 4 (TRP-2)
LLGPGRPYR [TRP197–205, 9mer antigenic peptide of TRP-2, amino acids 197–205]	> 4000 pg/mL
MSLQRQFLR [ORF3P, control peptide derived from the alternative open reading frame of the TRP-1 gene, reference compound]	< 50 pg/mL

Tested on: CTL clone 1 (TRP-1)
Assay: GM-CSF secretion assay: CTL clone 1 (TIL586-C1) co-incubated with peptide-pulsed target cells
Format: cell-based, human
Details: 586EBV (HLA-A31+) cells pulsed with peptide at 1-g/ml for 90 min; T cells alone subtracted
Text: (§1) The T cell clones were generated by limiting dilution methods (at 1 cells/well) from the TIL586 cell line, and used allogenic PBL (1×10^3 cells/well) as feeder cells in RPMI1640 containing 10% human AB sera and 500 IU IL-2. After 12 days, T cell clones were then expanded in AIM-V medium containing 6000 IU/ml IL-2. To obtain an optimal expansion, we used the OKT3 expansion method described by S. Riddell (Walter et al. (1995)). Briefly, on day 0, 5×10^4 5×10^5 T cells were cocultured with HLA-A31 PBL (500:1, PBL: T cell ratio) and 586EBV B cells (100: 1, EBV: T cell ratio) in 25 ml RPMI 1640 containing 11% human sera, 30 ng/ml OKT3 antibody and antibiotics. On day 1, IL-2 was added at final concentration of 180 IU/ml. The media were changed with fresh media containing 11% human sera, IL-2 180 IU/ml on day 5. The media were then changed every three days. On day 12–14, T cells were harvested, counted and cryopreserved. TIL586 were isolated from the tumor specimen of a patient with metastatic melanoma and grown in medium containing IL-2 (6000 IU/ml) (Chiron) for 32–60 days as previously described [Topalian et al. 1988). TIL586 were predominantly CD8+ T cells. DNA transfection and GM-CSF assays were performed as previously described (Wang et al. 1995). Briefly, 200 ng of DNA encoding antigens and 50 ng of the HLA-A31 DNA were mixed with 2 μl of lipofectamine in […] of DMEM for 15–45 min. The DNA/lipofectamine mixture was then added to the COS-7 (5×104) cells and incubated overnight. The following day, cells were washed twice with DMEM medium. TIL586 was added at a concentration of 1×10^5 cells/well in AIM-V medium containing 120 IU/ml of IL-2. For T cell clones, only 1–2×10^4 cells/well were added. After 18–24 h incubation, 100 μl of supernatant was collected and GM-CSF was measured in a standard ELISA assay (R+D^− Systems, Minneapolis, Minn.). For testing peptides recognition, 586EBV or T2 cells were incubated with peptides at 37° C. for 90 min, and then washed three times with AIM-V medium containing 120 IU/ml of IL-2. T cells were added and incubated for an additional 18–24 h, 100 μl of supernatant was collected for GM-CSF assay.

Sequence	GSM-CSF release CTL clone 1 (TRP-1)
FVWLHYYSVR [TRP185–194, synthetic TRP-2 peptide]	< 50 pg/mL
GPAFVTWHR [TRP213–221, synthetic TRP-2 peptide]	< 50 pg/mL
LLGPGRPYR [TRP197–205, 9mer antigenic peptide of TRP-2, amino acids 197–205]	< 50 pg/mL
MSLQRQFLR [ORF3P, control peptide derived from the alternative open reading frame of the TRP-1 gene, reference compound]	> 8000 pg/mL
RDTLLGPGR [TRP194–202, synthetic TRP-2 peptide]	< 50 pg/mL
VWLHYYSVR [TRP186–194, synthetic TRP-2 peptide]	< 50 pg/mL

Same assay, conditions: T2 (HLA-A31 negative) cells pulsed with peptide at 1-g/ml for 90 min

Sequence	GSM-CSF release CTL clone 1 (TRP-1)
LLGPGRPYR [TRP197–205, 9mer antigenic peptide of TRP-2, amino acids 197–205]	< 50 pg/mL
MSLQRQFLR [ORF3P, control peptide derived from the alternative open reading frame of the TRP-1 gene, reference compound]	< 50 pg/mL

Tested on: CTL clone 4 (TRP-2)
Assay: GM-CSF secretion assay: CTL clone 4 co-incubated with peptide-pulsed target cells
Format: cell-based, human
Details: 586EBV (HLA-A31+) cells pulsed with peptide at 1-g/ml for 90 min; T cells alone subtracted
Text: as §1

Sequence	GSM-CSF release CTL clone 4 (TRP-2)
FVWLHYYSVR [TRP185–194, synthetic TRP-2 peptide]	< 50 pg/mL
GPAFVTWHR [TRP213–221, synthetic TRP-2 peptide]	< 50 pg/mL
LLGPGRPYR [TRP197–205, 9mer antigenic peptide of TRP-2, amino acids 197–205]	> 4000 pg/mL
MSLQRQFLR [ORF3P, control peptide derived from the alternative open reading frame of the TRP-1 gene, reference compound]	< 50 pg/mL
RDTLLGPGR [TRP194–202, synthetic TRP-2 peptide]	< 50 pg/mL
VWLHYYSVR [TRP186–194, synthetic TRP-2 peptide]	< 50 pg/mL

Same assay, conditions: 586EBV cells pulsed with peptide at 0.5-g/ml for 90 min; T cells alone subtracted; in pg/mL

Sequence	CTL clone 4 GM-CSF release
ALGPGRPYR	<50
KLGPGRPYR	420
LAGPGRPYR	550
LFGPGRPYR	<50
LGPGRPYR	<50
LIGPGRPYR	2545
LLAPGRPYR	<50
LLFPGRPYR	<50
LLGPGAPYR	<50
LLGPGFPYR	738
LLGPGIPYR	<50
LLGPGKPYR	321
LLGPGRPYH	<50
LLGPGRPYK	2000
LLGPGRPYR [TRP197–205, 9mer antigenic peptide of TRP-2, amino acids 197–205]	3450
LLGPGRPYRA	545
LLGPGVPYR	<50
LLLPGRPYR	<50
LSGPGRPYR	3300
LVGPGRPYR	2100
RLGPGRPYR	<50
TLLGPGRPYR [10mer extended byone amino acid at the N-terminus of TRP 197-205]	2100

Same assay, conditions: T2 (HLA-A31 negative) cells pulsed with peptide at 1-g/ml for 90 min

Sequence	GSM-CSF release CTL clone 4 (TRP-2)
LLGPGRPYR [TRP197–205, 9mer antigenic peptide of TRP-2, amino acids 197–205]	< 50 pg/mL
MSLQRQFLR [ORF3P, control peptide derived from the alternative open reading frame of the TRP-1 gene, reference compound]	< 50 pg/mL

Same assay, conditions: peptide pulsed on 586EBV B cells

Sequence	recognition by CTL clone 4 / stimulation of cytokine release (in words)	reactivity (GM-CSF release, CTL clone 4) relative to the parental 9mer LLGPGRPYR
LLGPGRPYR [TRP197–205, 9mer antigenic peptide of TRP-2, amino acids 197–205]	strongly recognized; also recorded: most efficiently stimulated cytokine release from T cells	
TLLGPGRPYR [10mer extended byone amino acid at the N-terminus of TRP 197-205]		about 60%

Same assay, conditions: titration, peptide pulsed on 586EBV B cells

Sequence	peptide concentration at which stimulation of GM-CSF release reached a plateau	peptide concentration sufficient to stimulate GM-CSF release from T cell clone 4
LLGPGRPYR [TRP197–205, 9mer antigenic peptide of TRP-2, amino acids 197–205]	500 nM	1 nM
